Reference: article PMC7824897, “Selection of the First ^99mTc-Labelled Somatostatin Receptor Subtype 2 Antagonist for Clinical Translation—Preclinical Assessment of Two Optimized Candidates” (Pharmaceuticals, 2020)
Where a SMILES comes first, the peptide text is derived from it. Bridges are numbered along the chain shown (N, C = ends). [ ]: non-standard residue; d: D form. The star is where a group is joined. N4 = 6-carboxy-1,4,8,11-tetraazaundecane chelator, NCCNCC(CNCCN)C(=O)*; dPhe(4-NHCONH2) = NC(=O)Nc1ccc(C[C@@H](N)C(=O)O)cc1; Phe(4-Cl) = N[C@@H](Cc1ccc(Cl)cc1)C(=O)O; X1 = NCCNCC(CNCCN)C(=O)*

Experiments:
[1] = format: physicochemical; conditions: pH 7.4
Procedure: Determination of the distribution coefficient (log D) was performed by the shake-flask method in 1:1 mixture of octanol/Phosphate buffered saline (PBS). Then, 50 µL of [^99mTc]Tc-TECANT-1 or [^99mTc]Tc-TECANT-2 solution was diluted up to 500 µL with PBS (pH 7.4; 8 mM phosphate). Next, 20 µL of this solution was added to six eppendorf tubes, each containing 500 µL octanol and 480 µL PBS. The samples were vortexed for 15 min at 1400 rpm followed by centrifugation for 2 min at 4500 rpm. Aliquots of 100 µL from each phase were taken and measured in a γ-counter. The log D was calculated as the average of the logarithmic values (n = 3, six technical replicates) of the ratio between the radioactivity in the octanol and the PBS phase.

[2] = target: T1, HEK-SST2 cells (human SST2 receptor) (Homo sapiens, UniProt P30874); assay: Internalization and cell-surface binding in HEK-SST2 cells; format: cell-based
T1 construct: expressed in transfected cells; host or cells: HEK293 (HEK-SST2), provided by Prof; Stefan Schulz, Jena University Hospital

[3] = target: T1, HEK-SST2 cells (human SST2 receptor); assay: Dissociation of cell-surface bound radiotracer with or without competitor; format: cell-based
[4] = design: species or system human
Excerpt: To account for various possible locations of the tumour, we used two S-values. One was the value for the liver and is representative for the liver lesions. Other was the “average abdominal S-value”, which was the average S-value for the following organs: stomach, liver, gallbladder, spleen, pancreas, small intestine, kidneys, large intestine, and adrenal glands. Estimated dose to various organs, average total body dose and effective dose are summarized in Table 3 for both radiotracers and two typical tumour locations.
Dosimetric calculations were based on the biodistribution of [^99mTc]Tc-TECANT-1 and [^99mTc]Tc-TECANT-2 (Table 3). […] Percent of injected activity per organ in a human model was evaluated according to the animal data extrapolation model:(2) (%IA/organ)human=[(%IA/g)mouse×Mmouse(g)]×(m(g)/M(kg))human
Here m is the organ mass and M is the total body weight of mouse or human. Average total weight of the mouse was measured, while human phantom has the total weight of 73 kg. The %IA/g and %IA/organ is the percentage of the injected activity concentration (i.e., per gram of tissue) and per organ, respectively. For the tumour, we assumed that the percent of injected activity uptake into the tumour is the same for mouse and human.
Subsequently, percentage of the injected activity per organ was folded with the decay curve of ^99mTc and interpolated with the exponential function. The interpolation function was used to estimate initial %ID/organ and the time-integrated activity concentration (TIAC). Absorbed dose per injected activity for various organs was calculated with the TIAC factors and S-values for a standard person from the OpenDose project. Effective dose was evaluated according to the ICRP 103 recommendations.
We also assumed that the remaining activity from the organs and tumour ends up in the bladder.

in vivo = conditions: female, mouse, 20 pmol, total radioactivity
[5] = target: T2, T7-epitope tagged human SST2 receptor (somatostatin receptor subtype 2) (human, UniProt P30874 1-369); assay: radioligand binding; competition on 5 x 10^5 HEK-SST2 cells in 96-well filter plates; radioligand [^177Lu]Lu-DOTA-TATE (1 nM); competitor 0.004 to 4000 nM; 2 h at 4 °C; TRIS buffer; apparent IC50; conditions: one partner purified
T2 construct: somatostatin receptor subtype 2 (SST2), human, expressed in HEK293 cells; also called HEK-SST2 (the cells that express it); source: HEK293 cell line expressing it (HEK-SST2), provided by Professor Stefan Schulz; on intact cells

[6] = target: T2, T7-epitope tagged human SST2 receptor …; assay: radioligand binding; dissociation with competitor: as without, but medium with 2.5 µM of the respective unlabelled TECANT analogue; conditions: one partner purified
[7] = target: T2, T7-epitope tagged human SST2 receptor …; assay: radioligand binding; dissociation without competitor: radiotracer 0.25 nM bound to HEK-SST2 cells for 2 h at 4 °C, washed, then medium at 37 °C replaced at 10, 20, 30, 60, 120 and 240 min; cell-associated radiotracer left; conditions: one partner purified
[8] = athymic nude-Foxn1^nu/Foxn1^+, Biodistribution Heart
[9] = athymic nude-Foxn1^nu/Foxn1^+, Biodistribution Liver
[10] = athymic nude-Foxn1^nu/Foxn1^+, Biodistribution Lung
[11] = athymic nude-Foxn1^nu/Foxn1^+, Biodistribution Pancreas
[12] = athymic nude-Foxn1^nu/Foxn1^+, Biodistribution Spleen
[13] = athymic nude-Foxn1nu/Foxn1+, Biodistribution Adrenals
[14] = athymic nude-Foxn1nu/Foxn1+, Biodistribution Blood
[15] = athymic nude-Foxn1nu/Foxn1+, Biodistribution Bone
[16] = athymic nude-Foxn1nu/Foxn1+, Biodistribution HEK-SST2 (+) tumour uptake
[17] = athymic nude-Foxn1nu/Foxn1+, Biodistribution Intestine
[18] = athymic nude-Foxn1nu/Foxn1+, Biodistribution Kidneys
[19] = athymic nude-Foxn1nu/Foxn1+, Biodistribution Muscle
[20] = athymic nude-Foxn1nu/Foxn1+, Biodistribution Pituitary
[21] = athymic nude-Foxn1nu/Foxn1+, Biodistribution Stomach

T1 sequence (P30874 whole entry): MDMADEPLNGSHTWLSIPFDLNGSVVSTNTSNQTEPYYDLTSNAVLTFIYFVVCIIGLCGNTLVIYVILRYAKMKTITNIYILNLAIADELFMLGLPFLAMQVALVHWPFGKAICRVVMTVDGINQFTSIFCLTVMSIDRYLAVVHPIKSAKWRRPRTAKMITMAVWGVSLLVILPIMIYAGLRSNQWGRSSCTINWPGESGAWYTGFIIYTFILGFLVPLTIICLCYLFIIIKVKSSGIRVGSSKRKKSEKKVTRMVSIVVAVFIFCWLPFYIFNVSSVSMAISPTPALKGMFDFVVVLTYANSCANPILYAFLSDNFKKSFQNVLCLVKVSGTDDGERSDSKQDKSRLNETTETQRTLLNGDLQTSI
T2 sequence (P30874 whole entry): as above

C[C@@H](O)[C@@H]1NC(=O)[C@H](CCCCN)NC(=O)[C@@H](Cc2ccc(NC(N)=O)cc2)NC(=O)[C@H](Cc2ccc(O)cc2)NC(=O)[C@H](NC(=O)[C@H](Cc2ccc(Cl)cc2)NC(=O)C(CNCCN)CNCCN)CSSC[C@@H](C(=O)N[C@H](Cc2ccc(O)cc2)C(N)=O)NC1=O [[^99mTc]Tc-TECANT-1, metal not drawn] (X1-[Phe(4-Cl)][dC]Y[dPhe(4-NHCONH2)]KTC[dY]-NH2; disulfide 2-7)
logD [1]: -2.53 ± 0.19 | internalization (internalized fraction) ([2]; 30 min, 37 °C): 4.1 ± 0.1% | internalization (internalized fraction) ([2]; 4 h, 37 °C): 13.4 ± 1.7% | cell surface binding ([2]; 4 h, 37 °C, % of total radioactivity added): 50.7 ± 1.7% | cellular uptake ([2]; at 2 h/37 °C): > 50% | fraction dissociated ([3]; HEK-SST2 cells, at 2 h/37 °C): < 30% | estimated dissociation half-life ([3]; absence of competitor): 98 min | total binding remaining (dissociation assay) ([3]; after 4 h, 37 °C, absence of competitor): 58.8 ± 3.3% | estimated dissociation half-life ([3]; presence of competitor): 19 min | bound fraction still remaining in the cells ([3]; presence of excess of the competitor, 37 °C): 7.9 ± 2.2% | Average total body dose [4]: 3.2 μGy/MBq | Dose Bone [4]: 3.9 μGy/MBq | Dose Muscle [4]: 2.4 μGy/MBq | Dose Red marrow [4]: 3.3 μGy/MBq | Dose Small intestine wall [4]: 1.9 μGy/MBq | biological half-life of clearance of remaining activity (rest of the body) to the bladder [4]: 9.7 h | effective dose [4]: 4.9 mSv | tissue uptake at 1 h (in vivo; [8]): 0.71 ± 0.1 %ID/g | tissue uptake at 4 h (in vivo; [8]): 0.24 ± 0.06 %ID/g | tissue uptake at 24 h (in vivo; [8]): 0.05 ± 0.02 %ID/g | tissue uptake at 1 h (in vivo; [9]): 3.13 ± 0.43 %ID/g | tissue uptake at 4 h (in vivo; [9]): 1.9 ± 0.41 %ID/g | tissue uptake at 24 h (in vivo; [9]): 0.6 ± 0.1 %ID/g | tissue uptake at 1 h (in vivo; [10]): 8.94 ± 3.92 %ID/g | tissue uptake at 4 h (in vivo; [10]): 3.07 ± 1.16 %ID/g | tissue uptake at 24 h (in vivo; [10]): 0.26 ± 0.04 %ID/g | tissue uptake at 1 h (in vivo; [11]): 47.8 ± 7.86 %ID/g | tissue uptake at 4 h (in vivo; [11]): 16.9 ± 3.97 %ID/g | tissue uptake at 24 h (in vivo; [11]): 1.08 ± 0.19 %ID/g | tissue uptake at 1 h (in vivo; [12]): 1.3 ± 0.41 %ID/g | tissue uptake at 4 h (in vivo; [12]): 0.57 ± 0.11 %ID/g | tissue uptake at 24 h (in vivo; [12]): 0.2 ± 0.01 %ID/g | tissue uptake at 1 h (in vivo; [13]): 7.11 ± 3.04 %ID/g | tissue uptake at 4 h (in vivo; [13]): 4.36 ± 1.88 %ID/g | tissue uptake at 24 h (in vivo; [13]): 0.85 ± 0.18 %ID/g | tissue uptake at 1 h (in vivo; [14]): 0.79 ± 0.09 %ID/g | tissue uptake at 4 h (in vivo; [14]): 0.23 ± 0.05 %ID/g | tissue uptake at 24 h (in vivo; [14]): 0.03 %ID/g | tissue uptake at 1 h (in vivo; [15]): 1.41 ± 0.77 %ID/g | tissue uptake at 4 h (in vivo; [15]): 0.59 ± 0.23 %ID/g | tissue uptake at 24 h (in vivo; [15]): 0.35 ± 0.07 %ID/g | tissue uptake at 1 h (in vivo; [16]): 21 ± 3.92 %ID/g | tissue uptake at 4 h (in vivo; [16]): 26 ± 1.33 %ID/g | tissue uptake at 24 h (in vivo; [16]): 19 ± 2 %ID/g | tissue uptake at 4 h (in vivo; athymic nude-Foxn1nu/Foxn1+, Biodistribution HEK-SST2 (−) tumour uptake): 0.88 ± 0.37 %ID/g | tissue uptake at 1 h (in vivo; [17]): 6.48 ± 4.37 %ID/g | tissue uptake at 4 h (in vivo; [17]): 2.4 ± 1.9 %ID/g | tissue uptake at 24 h (in vivo; [17]): 0.31 ± 0.08 %ID/g | tissue uptake at 1 h (in vivo; [18]): 16.3 ± 1.83 %ID/g | tissue uptake at 4 h (in vivo; [18]): 12.6 ± 2.54 %ID/g | tissue uptake at 24 h (in vivo; [18]): 2.42 ± 0.2 %ID/g | tissue uptake at 1 h (in vivo; [19]): 0.23 ± 0.05 %ID/g | tissue uptake at 4 h (in vivo; [19]): 0.12 ± 0.06 %ID/g | tissue uptake at 24 h (in vivo; [19]): 0.05 ± 0.01 %ID/g | tissue uptake at 1 h (in vivo; [20]): 9.71 ± 2.81 %ID/g | tissue uptake at 4 h (in vivo; [20]): 6.66 ± 3.67 %ID/g | tissue uptake at 24 h (in vivo; [20]): 4.35 ± 2.87 %ID/g | tissue uptake at 1 h (in vivo; [21]): 36.5 ± 7.89 %ID/g | tissue uptake at 4 h (in vivo; [21]): 13.6 ± 3.86 %ID/g | tissue uptake at 24 h (in vivo; [21]): 1.42 ± 0.27 %ID/g

B1: TECANT-1 (N4-p-Cl-Phe-cyclo(D-Cys-Tyr-D-Aph(Cbm)-Lys-Thr-Cys)-D-Tyr-NH2) (peptide)
peptide: N4-[Phe(4-Cl)][dC]Y[dPhe(4-NHCONH2)]KTC[dY]-NH2
modifications: disulfide 2-7
SMILES: C[C@@H](O)[C@@H]1NC(=O)[C@H](CCCCN)NC(=O)[C@@H](Cc2ccc(NC(N)=O)cc2)NC(=O)[C@H](Cc2ccc(O)cc2)NC(=O)[C@H](NC(=O)[C@H](Cc2ccc(Cl)cc2)NC(=O)C(CNCCN)CNCCN)CSSC[C@@H](C(=O)N[C@H](Cc2ccc(O)cc2)C(N)=O)NC1=O
notes: printed in three-letter code: N4-p-Cl-Phe-cyclo(D-Cys-Tyr-D-Aph(Cbm)-Lys-Thr-Cys)-D-Tyr-NH2; F at 1 stands for p-Cl-Phe and F at 4 for D-Aph(Cbm), both phenylalanine derivatives; SST2 antagonist based on LM3; non-metallated peptide conjugate; also called N4-LM3; source: synthetic peptide, custom made by piChem
IC50 [5]: 4.14 ± 0.83 nM

B2: ^natRe-TECANT-2 (peptide)
peptide: N4-[Phe(4-Cl)][dC]Y[dW]KTC[dY]-NH2
modifications: disulfide 2-7; also: N4 chelator holds natural rhenium
notes: as TECANT-2: N4-p-Cl-Phe-cyclo(D-Cys-Tyr-D-Trp-Lys-Thr-Cys)-D-Tyr-NH2; F at 1 stands for p-Cl-Phe; surrogate of the Tc complex; also called [^natRe]Re-TECANT-2; Re-complex of TECANT-2; source: synthetic peptide (piChem), Re complex made with tetrabutylammonium-tetrachloro-oxo-rhenate (V)
IC50 [5]: 4.47 ± 0.89 nM

B3: [^99mTc]Tc-TECANT-2 (peptide)
peptide: N4-[Phe(4-Cl)][dC]Y[dW]KTC[dY]-NH2
modifications: disulfide 2-7; also: N4 chelator holds 99mTc (dioxo-99mTc(V) complex)
notes: as TECANT-2: N4-p-Cl-Phe-cyclo(D-Cys-Tyr-D-Trp-Lys-Thr-Cys)-D-Tyr-NH2; F at 1 stands for p-Cl-Phe; also called ^99mTc-N4-SS01; source: synthetic peptide (piChem), labelled with ^99mTc, used without further purification
estimated half-life of dissociation [6]: 7.5 min | estimated half-life of dissociation [7]: 40.3 min

B4: [^99mTc]Tc-TECANT-1 (peptide)
peptide: N4-[Phe(4-Cl)][dC]Y[dPhe(4-NHCONH2)]KTC[dY]-NH2
modifications: disulfide 2-7; also: N4 chelator holds 99mTc (dioxo-99mTc(V) complex)
notes: as TECANT-1: N4-p-Cl-Phe-cyclo(D-Cys-Tyr-D-Aph(Cbm)-Lys-Thr-Cys)-D-Tyr-NH2; F at 1 stands for p-Cl-Phe and F at 4 for D-Aph(Cbm); source: synthetic peptide (piChem), labelled with ^99mTc, used without further purification
estimated half-life of dissociation [6]: 19 min | estimated half-life of dissociation [7]: 98 min

B5: ^natRe-TECANT-1 (peptide)
peptide: N4-[Phe(4-Cl)][dC]Y[dPhe(4-NHCONH2)]KTC[dY]-NH2
modifications: disulfide 2-7; also: N4 chelator holds natural rhenium
notes: as TECANT-1: N4-p-Cl-Phe-cyclo(D-Cys-Tyr-D-Aph(Cbm)-Lys-Thr-Cys)-D-Tyr-NH2; F at 1 stands for p-Cl-Phe and F at 4 for D-Aph(Cbm); surrogate of the Tc complex; also called [^natRe]Re-TECANT-1; Re-complex of TECANT-1; source: synthetic peptide (piChem), Re complex made with tetrabutylammonium-tetrachloro-oxo-rhenate (V)
IC50 [5]: 5.01 ± 0.93 nM
